“Also recorded” adds a separate entry of the source.
How the values were obtained:
KV1.3 = KV1.3 (Homo sapiens, UniProt P22001); set-up: method as in PMID 32199306; settings: applied ex vivo to Kv1.3 expressing oocytes; read-out: IC50 KV1.3 (previous work); cited from earlier work
KV1.1 = KV1.1 (Rattus norvegicus, UniProt P10499); test: Selectivity, HiClamp Xenopus laevis heterologous expression system, KV1.1; assay type: cell-based; settings: 10 µM; HiClamp, oocytes
Experimental: (§1) Ion channels (Kv1.x, Kv2.1, Kv4.2, Kv10.1) were expressed in Xenopus laevis oocytes by linearization of the plasmids and subsequent in vitro transcription using a commercial T7 or SP6 mMESSAGE mMACHINE transcription kit (Ambion, Carlsbad, California, USA). Defolliculated Xenopus oocytes were then injected with 20–50 nL of the cRNA at a concentration of 1 ng/nL using a micro-injector (Drummond Scientific1, Broomall, PA, USA). The oocytes were incubated in a solution containing (in mM): NaCl, 96; KCl, 2; CaCl2, 1.8; MgCl2, 2 and HEPES, 5 (pH 7.5), supplemented with 50 mg/L gentamycin sulfate and 90 mg/L theophylline. After ex vivo translation, the ion channels were correctly inserted in the cell membrane of the oocytes.
(§2) Two-electrode voltage-clamp recordings were performed at room temperature (18–22 °C) using a Geneclamp 500 amplifier (Molecular Devices, San Jose, CA, USA) and pClamp data acquisition (Axon Instruments, Union City, CA, USA) and using an integrated digital TEVC amplifier controlled by HiClamp, an automated Voltage-Clamp Screening System (Multi Channel Systems MCS GmbH, Reutlingen, Germany). Whole-cell currents from oocytes were recorded 1–4 days after injection. The bath solution composition was ND96 (in mM): NaCl, 96; KCl, 2; CaCl2, 1.8; MgCl2, 2 and HEPES, 5 (pH 7.5). Voltage and current electrodes were filled with a 3 M solution of KCl in H2O. Resistances of both electrodes were kept between 0.5 and 1.5 MΩ. The elicited Kv1.x, Kv2.1, Kv4.2 and Kv10.1 currents were filtered at 0.5 kHz and sampled at 2 kHz using a four-pole low-pass Bessel filter. Leak subtraction was performed using a P/4 protocol.
(§3) For the electrophysiological analysis of the compounds, a number of protocols were applied from a holding potential of −90 mV. Currents for Kv1.x, Kv2.1, Kv4.2 and Kv10.1 were evoked by 1 s depolarizing pulses either to 0 mV or to a range of voltage steps between −80 mV and +40 mV. For the analysis of the data, only the inhibition at the 0 mV step was used. The concentration dependency of all compounds was assessed by measuring the current inhibition in the presence of increasing compound concentrations. […] From this stock solution, adequate dilutions with a maximum of 0.5% DMSO were made for testing.
(§4) All electrophysiological data (Figure S1) are presented as means ± S.E.M of n ≥ three independent experiments unless otherwise indicated. All data were analyzed using pClamp Clampfit 10.4 (Molecular Devices, Downingtown, PA, USA), OriginPro 9 (Originlab, Northampton, MA, USA), GraphPad Prism 8 software (GraphPad Software, Inc., San Diego, CA, USA) and DataMining (Multi Channel Systems MCS GmbH, Reutlingen, Germany). The Dunnett test and one-way ANOVA were performed to calculate the significance of the induced inhibition compared to the control.

KV1.2 = KV1.2 (Homo sapiens, UniProt P16389); test: Selectivity, HiClamp Xenopus laevis heterologous expression system, KV1.2; assay type: cell-based; settings: 10 µM; HiClamp, oocytes
Experimental: as §1, §2, §3, §4

KV1.4 = KV1.4 (Homo sapiens, UniProt P22459); test: Selectivity, HiClamp Xenopus laevis heterologous expression system, KV1.4; assay type: cell-based; settings: 10 µM; HiClamp, oocytes
Experimental: as §1
as §2, with “Resistances of both electrodes were kept between 0.5 and 1.5 MΩ. The elicited Kv1.x, Kv2.1, Kv4.2 and Kv10.1 currents were filtered at 0.5 kHz and sampled at 2 kHz using a four-pole low-pass Bessel filter. Leak subtraction was performed using a P/4 protocol.” left out
(§5) For the electrophysiological analysis of the compounds, a number of protocols were applied from a holding potential of −90 mV. […] The concentration dependency of all compounds was assessed by measuring the current inhibition in the presence of increasing compound concentrations. […]
as §4, with “The Dunnett test and one-way ANOVA were performed to calculate the significance of the induced inhibition compared to the control.” left out

KV1.5 = KV1.5 (Homo sapiens, UniProt P22460); test: Selectivity, HiClamp Xenopus laevis heterologous expression system, KV1.5; assay type: cell-based; settings: 10 µM; HiClamp, oocytes
Experimental: as §1, §2, §3, §4

KV1.6 = KV1.6 (Homo sapiens, UniProt P17658); test: Selectivity, HiClamp Xenopus laevis heterologous expression system, KV1.6; assay type: cell-based; settings: 10 µM; HiClamp, oocytes
Experimental: as §1, §2, §3, §4

KV2.1 = target: T1, KV2.1 (Homo sapiens, UniProt Q14721); test: Selectivity, HiClamp Xenopus laevis heterologous expression system, KV2.1; assay type: cell-based; settings: 10 µM; HiClamp, oocytes
T1 sequence (Q14721 1-858): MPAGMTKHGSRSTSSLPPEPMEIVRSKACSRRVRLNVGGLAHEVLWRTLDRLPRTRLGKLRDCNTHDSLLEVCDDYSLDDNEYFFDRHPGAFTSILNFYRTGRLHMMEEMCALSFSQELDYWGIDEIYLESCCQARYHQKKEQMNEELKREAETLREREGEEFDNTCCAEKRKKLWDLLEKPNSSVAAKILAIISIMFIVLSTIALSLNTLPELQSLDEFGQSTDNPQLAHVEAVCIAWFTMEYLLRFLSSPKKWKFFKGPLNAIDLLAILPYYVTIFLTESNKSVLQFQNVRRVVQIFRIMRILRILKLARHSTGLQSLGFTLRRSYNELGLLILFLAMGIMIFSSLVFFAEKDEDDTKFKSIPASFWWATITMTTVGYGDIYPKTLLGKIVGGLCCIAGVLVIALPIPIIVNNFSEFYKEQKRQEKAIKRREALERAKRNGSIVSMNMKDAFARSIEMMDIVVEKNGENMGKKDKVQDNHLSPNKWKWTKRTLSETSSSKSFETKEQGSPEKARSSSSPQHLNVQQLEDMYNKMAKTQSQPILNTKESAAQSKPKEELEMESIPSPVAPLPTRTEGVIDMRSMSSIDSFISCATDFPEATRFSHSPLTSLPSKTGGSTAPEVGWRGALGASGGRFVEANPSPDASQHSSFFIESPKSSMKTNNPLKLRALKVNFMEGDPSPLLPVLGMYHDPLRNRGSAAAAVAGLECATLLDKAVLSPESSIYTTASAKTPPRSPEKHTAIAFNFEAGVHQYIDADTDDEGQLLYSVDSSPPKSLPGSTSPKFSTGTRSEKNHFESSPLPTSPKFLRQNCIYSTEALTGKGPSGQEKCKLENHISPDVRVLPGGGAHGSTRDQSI
Experimental: as §1
as §2, with “Resistances of both electrodes were kept between 0.5 and 1.5 MΩ. The elicited Kv1.x, Kv2.1, Kv4.2 and Kv10.1 currents were filtered at 0.5 kHz and sampled at 2 kHz using a four-pole low-pass Bessel filter. Leak subtraction was performed using a P/4 protocol.” left out
as §5
as §4, with “The Dunnett test and one-way ANOVA were performed to calculate the significance of the induced inhibition compared to the control.” left out

KV4.2 = KV4.2 (Homo sapiens, UniProt Q9NZV8); test: Selectivity, HiClamp Xenopus laevis heterologous expression system, KV4.2; assay type: cell-based; settings: 10 µM, oocytes
Experimental: as §1, with “After ex vivo translation, the ion channels were correctly inserted in the cell membrane of the oocytes.” left out
(§6) Two-electrode voltage-clamp recordings were performed at room temperature (18–22 °C) using a Geneclamp 500 amplifier (Molecular Devices, San Jose, CA, USA) and pClamp data acquisition (Axon Instruments, Union City, CA, USA) and using an integrated digital TEVC amplifier controlled by HiClamp, an automated Voltage-Clamp Screening System (Multi Channel Systems MCS GmbH, Reutlingen, Germany). Whole-cell currents from oocytes were recorded 1–4 days after injection. […]
as §5

KV10.1 = KV10.1 (Homo sapiens, UniProt O95259); test: Selectivity, HiClamp Xenopus laevis heterologous expression system, KV10.1; assay type: cell-based; settings: 10 µM; HiClamp, oocytes
Experimental: as §1, with “After ex vivo translation, the ion channels were correctly inserted in the cell membrane of the oocytes.” left out
as §6, §5

Panc-1 tumor spheroids = test: Apoptosis (caspase 3/7 activity) in Panc-1 tumor spheroids; assay type: cell-based; settings: with 8.9 µM cycloheximide
Experimental: (§7) Cell lines Panc-1 (ACC 783) and Colo-357 (CVCL_0221) were obtained through the validated collection of the pHioniC consortium (MSC-ITN 813834). Both cell lines were grown in RPMI1640, supplemented with 1 mM sodium pyruvate and 1% Glutamax (all Gibco Thermo-Fisher, Waltham, MA USA) 10%FBS (BioChrom, Berlin, Germany), at 5% CO2 and 37 °C in a humidified atmosphere.
(§8) Spheroids were cultured in round bottom ultra-low attachment 96-well plates (Corning). The optimal seeding densities were empirically determined (8000 cells/well for Colo-357 or 10,000 cells/well for Panc-1 spheroids. The cells were suspended in 2% Matrigel (Corning), centrifuged at 1000× g for 10 min and the spheroids were allowed to form in the incubator. Once the spheroids were formed, the treatments indicated together with 8.9 µM cycloheximide (as apoptosis sensitizer) were added and apoptosis was determined by live imaging in the Incucyte system in real time for approximately 60 h using Caspase-3/7 green reagent (Sartorius) as a reporter of apoptosis, which crosses the cell membrane and is cleaved by the activated Caspase-3/7, resulting in the fluorescent staining of nuclear DNA. Apoptosis on Panc-1 tumor spheroids is presented as integrated green fluorescence in the whole spheroid.

[1] = system: cancer cells (human SAOS2, mouse B16F10 melanoma, and human B-CLL); settings: PAP-1 20 µM, clofazimine 1 or 10 µM, with MDRi cyclosporine H (4 µM) and probenecid (100 µM); cited from earlier work
Colo-357 tumor spheroids = test: Apoptosis (caspase 3/7 activity) in Colo-357 tumor spheroids; assay type: cell-based; settings: with 8.9 µM cycloheximide, up to 100 µM
Experimental: as §7, §8

[2] = Turbidimetric solubility assay; assay type: physicochemical
Experimental: For the phosphate-buffered saline, we dissolved 2.38 g of disodium hydrogen phosphate dodecahydrate, 0.19 g of potassium dihydrogen phosphate, and 8.0 g of sodium chloride in water and diluted it to 1000 mL with the same solvent. Then we adjusted the pH to 7.4. The stock DMSO solutions of the compounds were prepared at concentrations of 50 mM, 20 mM, 10 mM, and 1 mM. The final solutions (500 µM, 200 µM, 100 µM, and 10 µM) were prepared by adding 2 µL of the stock DMSO solution to 198 µL of phosphate-buffered saline. The absorbance (area scan) was measured at 620 nm for sample volume of 200 µL and the appearance of the solutions was checked by visual inspection.

[3] = system: other KV1.x family channels or more distantly related channels; set-up: method as in PMID 32199306; settings: cited from earlier work
Panc-1 cell line = system: Panc-1 cell line; set-up: method as in PMID 29034212; settings: Panc-1; 20 µM; cited from earlier work
Colo-357 = system: Colo-357; set-up: method as in PMID 29034212; settings: read-out: EC50 cell death; cited from earlier work
[4] = system: KV1.1, KV1.2, KV1.5 and KV3.1; set-up: method as in PMID 19104661; settings: cited from earlier work
[5] = system: pancreatic ductal adenocarcinoma (PDAC) cell lines; settings: cited from earlier work
[6] = system: orthotopic PDAC xenotransplantation model; settings: orthotopic PDAC xenotransplantation model in SCID beige mice; cited from earlier work

Sequence of KV10.1 (O95259 whole entry): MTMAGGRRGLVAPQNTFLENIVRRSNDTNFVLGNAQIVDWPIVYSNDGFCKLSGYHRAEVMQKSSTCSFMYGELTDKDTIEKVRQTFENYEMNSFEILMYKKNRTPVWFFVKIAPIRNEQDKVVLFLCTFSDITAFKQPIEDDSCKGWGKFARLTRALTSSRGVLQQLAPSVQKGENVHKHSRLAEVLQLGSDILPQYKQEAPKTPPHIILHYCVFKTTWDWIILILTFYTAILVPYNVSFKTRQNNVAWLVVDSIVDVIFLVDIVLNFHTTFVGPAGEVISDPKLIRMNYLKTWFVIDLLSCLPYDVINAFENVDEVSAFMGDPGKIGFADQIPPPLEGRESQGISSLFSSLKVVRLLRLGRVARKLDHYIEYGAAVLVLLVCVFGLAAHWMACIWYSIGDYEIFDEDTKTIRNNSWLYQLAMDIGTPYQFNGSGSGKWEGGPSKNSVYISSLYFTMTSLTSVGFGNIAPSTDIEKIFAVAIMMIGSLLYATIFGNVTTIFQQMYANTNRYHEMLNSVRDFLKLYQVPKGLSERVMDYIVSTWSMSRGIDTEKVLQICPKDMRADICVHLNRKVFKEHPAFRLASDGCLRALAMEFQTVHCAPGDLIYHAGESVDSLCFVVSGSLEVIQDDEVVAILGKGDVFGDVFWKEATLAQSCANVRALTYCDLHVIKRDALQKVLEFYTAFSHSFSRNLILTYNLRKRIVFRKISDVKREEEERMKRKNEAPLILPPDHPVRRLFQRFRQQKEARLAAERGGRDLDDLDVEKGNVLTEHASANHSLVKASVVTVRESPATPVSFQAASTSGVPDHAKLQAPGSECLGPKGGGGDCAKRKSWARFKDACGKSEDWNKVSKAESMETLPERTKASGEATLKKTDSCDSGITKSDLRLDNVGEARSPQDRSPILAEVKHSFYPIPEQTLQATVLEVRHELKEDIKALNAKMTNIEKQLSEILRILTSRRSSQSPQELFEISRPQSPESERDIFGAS
Sequence of KV1.2 (P16389 whole entry): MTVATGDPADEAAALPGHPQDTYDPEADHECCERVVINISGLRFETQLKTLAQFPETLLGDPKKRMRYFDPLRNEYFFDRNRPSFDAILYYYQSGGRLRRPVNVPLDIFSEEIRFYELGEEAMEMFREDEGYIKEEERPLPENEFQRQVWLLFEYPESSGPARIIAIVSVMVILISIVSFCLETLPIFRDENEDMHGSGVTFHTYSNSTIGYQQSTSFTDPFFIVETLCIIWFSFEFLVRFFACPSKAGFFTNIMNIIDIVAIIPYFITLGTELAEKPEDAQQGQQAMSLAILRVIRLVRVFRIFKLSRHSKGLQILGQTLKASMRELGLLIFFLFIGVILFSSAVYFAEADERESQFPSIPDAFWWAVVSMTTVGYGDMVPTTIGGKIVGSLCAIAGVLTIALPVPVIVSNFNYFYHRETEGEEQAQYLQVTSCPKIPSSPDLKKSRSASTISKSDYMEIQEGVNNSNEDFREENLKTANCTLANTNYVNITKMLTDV
Sequence of KV1.3 (P22001 whole entry): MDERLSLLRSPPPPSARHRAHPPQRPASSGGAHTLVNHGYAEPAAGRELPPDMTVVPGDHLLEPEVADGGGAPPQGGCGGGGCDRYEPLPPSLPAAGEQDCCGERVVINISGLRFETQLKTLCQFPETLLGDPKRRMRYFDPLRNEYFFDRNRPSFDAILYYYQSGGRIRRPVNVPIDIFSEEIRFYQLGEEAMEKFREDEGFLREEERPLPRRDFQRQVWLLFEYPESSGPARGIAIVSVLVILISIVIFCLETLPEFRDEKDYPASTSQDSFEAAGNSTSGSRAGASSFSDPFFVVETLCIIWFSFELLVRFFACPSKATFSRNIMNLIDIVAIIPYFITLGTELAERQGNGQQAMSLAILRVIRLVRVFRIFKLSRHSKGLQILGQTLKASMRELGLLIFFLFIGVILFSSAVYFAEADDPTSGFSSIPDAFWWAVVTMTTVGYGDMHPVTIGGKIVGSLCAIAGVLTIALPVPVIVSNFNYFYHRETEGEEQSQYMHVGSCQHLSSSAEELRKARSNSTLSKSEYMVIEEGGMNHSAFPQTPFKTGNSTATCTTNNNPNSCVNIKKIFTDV
Sequence of KV4.2 (Q9NZV8 whole entry): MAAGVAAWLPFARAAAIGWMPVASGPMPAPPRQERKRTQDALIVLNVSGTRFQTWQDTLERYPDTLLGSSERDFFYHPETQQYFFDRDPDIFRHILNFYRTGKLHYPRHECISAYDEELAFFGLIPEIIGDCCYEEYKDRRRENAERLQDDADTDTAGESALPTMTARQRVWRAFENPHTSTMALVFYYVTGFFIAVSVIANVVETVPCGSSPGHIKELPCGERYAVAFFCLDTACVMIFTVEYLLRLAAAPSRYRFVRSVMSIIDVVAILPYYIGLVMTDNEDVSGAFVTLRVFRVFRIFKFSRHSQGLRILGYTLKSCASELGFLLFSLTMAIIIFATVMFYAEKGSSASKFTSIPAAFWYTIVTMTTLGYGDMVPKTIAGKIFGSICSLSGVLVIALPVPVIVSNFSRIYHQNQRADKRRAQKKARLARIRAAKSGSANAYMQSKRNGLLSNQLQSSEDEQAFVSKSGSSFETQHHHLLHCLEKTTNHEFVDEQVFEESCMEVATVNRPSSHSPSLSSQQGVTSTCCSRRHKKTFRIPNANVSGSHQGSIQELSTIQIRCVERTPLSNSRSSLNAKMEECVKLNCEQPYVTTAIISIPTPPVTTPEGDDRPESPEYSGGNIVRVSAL
Sequence of KV1.5 (P22460 whole entry): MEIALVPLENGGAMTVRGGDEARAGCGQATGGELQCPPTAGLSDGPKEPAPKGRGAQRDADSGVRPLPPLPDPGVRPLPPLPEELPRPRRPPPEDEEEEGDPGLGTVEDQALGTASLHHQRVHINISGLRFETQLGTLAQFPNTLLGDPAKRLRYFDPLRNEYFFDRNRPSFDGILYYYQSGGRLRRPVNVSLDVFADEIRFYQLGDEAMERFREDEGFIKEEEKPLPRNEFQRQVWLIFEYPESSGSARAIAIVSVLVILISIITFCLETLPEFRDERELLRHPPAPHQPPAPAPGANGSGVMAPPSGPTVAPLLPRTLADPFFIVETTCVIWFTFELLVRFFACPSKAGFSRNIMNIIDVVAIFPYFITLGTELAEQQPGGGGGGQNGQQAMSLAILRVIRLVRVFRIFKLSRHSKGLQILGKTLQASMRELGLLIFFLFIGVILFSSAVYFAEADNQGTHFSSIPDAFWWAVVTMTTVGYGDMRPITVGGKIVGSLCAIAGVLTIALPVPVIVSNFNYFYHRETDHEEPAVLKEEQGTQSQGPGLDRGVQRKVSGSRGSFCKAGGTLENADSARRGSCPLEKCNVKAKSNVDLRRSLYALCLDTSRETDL
Sequence of KV1.1 (P10499 whole entry): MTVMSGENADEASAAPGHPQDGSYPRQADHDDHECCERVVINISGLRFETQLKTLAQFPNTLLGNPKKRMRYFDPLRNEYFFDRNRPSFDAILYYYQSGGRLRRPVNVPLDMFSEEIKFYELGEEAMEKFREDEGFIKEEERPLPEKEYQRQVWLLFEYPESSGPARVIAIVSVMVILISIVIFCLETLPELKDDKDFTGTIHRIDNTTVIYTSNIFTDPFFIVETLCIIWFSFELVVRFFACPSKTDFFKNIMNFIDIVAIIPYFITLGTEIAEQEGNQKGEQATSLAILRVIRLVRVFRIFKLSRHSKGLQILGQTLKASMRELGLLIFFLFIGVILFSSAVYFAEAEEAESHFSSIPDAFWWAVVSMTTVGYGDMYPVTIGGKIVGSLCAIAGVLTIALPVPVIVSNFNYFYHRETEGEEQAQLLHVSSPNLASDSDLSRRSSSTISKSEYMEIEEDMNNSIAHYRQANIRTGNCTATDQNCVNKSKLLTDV
Sequence of KV1.4 (P22459 whole entry): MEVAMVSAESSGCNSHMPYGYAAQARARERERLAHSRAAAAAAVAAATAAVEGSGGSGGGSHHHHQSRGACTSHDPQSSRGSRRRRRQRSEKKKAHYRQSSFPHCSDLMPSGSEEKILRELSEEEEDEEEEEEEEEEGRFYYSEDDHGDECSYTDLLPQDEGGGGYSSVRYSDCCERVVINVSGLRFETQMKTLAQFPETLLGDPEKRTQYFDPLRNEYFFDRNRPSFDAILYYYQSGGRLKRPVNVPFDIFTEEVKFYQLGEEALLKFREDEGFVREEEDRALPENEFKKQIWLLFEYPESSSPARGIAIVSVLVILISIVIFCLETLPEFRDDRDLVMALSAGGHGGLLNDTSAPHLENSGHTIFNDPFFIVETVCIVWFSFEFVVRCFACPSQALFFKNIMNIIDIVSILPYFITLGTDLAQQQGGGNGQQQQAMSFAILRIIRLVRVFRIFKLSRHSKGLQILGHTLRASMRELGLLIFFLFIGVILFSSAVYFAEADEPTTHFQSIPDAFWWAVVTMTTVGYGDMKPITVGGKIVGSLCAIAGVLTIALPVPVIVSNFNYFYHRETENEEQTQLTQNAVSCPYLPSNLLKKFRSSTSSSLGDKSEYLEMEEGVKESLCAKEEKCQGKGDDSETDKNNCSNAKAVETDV
Sequence of KV1.6 (P17658 whole entry): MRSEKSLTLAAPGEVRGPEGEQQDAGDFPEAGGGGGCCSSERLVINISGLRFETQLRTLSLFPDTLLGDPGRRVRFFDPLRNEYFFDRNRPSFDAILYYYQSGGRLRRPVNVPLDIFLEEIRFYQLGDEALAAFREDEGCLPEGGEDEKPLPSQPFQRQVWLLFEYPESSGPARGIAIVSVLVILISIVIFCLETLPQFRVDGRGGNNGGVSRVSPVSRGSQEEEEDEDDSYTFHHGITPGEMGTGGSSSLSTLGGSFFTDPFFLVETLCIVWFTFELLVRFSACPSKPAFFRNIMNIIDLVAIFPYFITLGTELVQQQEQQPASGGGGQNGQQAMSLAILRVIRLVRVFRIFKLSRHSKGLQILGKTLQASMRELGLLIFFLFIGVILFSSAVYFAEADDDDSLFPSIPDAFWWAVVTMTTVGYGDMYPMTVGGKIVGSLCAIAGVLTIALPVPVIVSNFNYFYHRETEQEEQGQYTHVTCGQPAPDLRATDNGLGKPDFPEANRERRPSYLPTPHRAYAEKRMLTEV

COc1ccccc1C(=O)NCC1(c2ccccc2)CCOCC1 [Compound 5]
IC50 (KV1.3): 920 nM

O=c1ccc2c(OCCCCOc3ccccc3)c3ccoc3cc2o1 [PAP-1 (1), PAP-1, reference compound]
Effect on KV1.1 channel (KV1.1): no significant effects | Effect on KV1.2 channel (KV1.2): no significant effects | Effect on KV1.4 channel (KV1.4): no significant effects | Effect on KV1.5 channel (KV1.5): no significant effects | Effect on KV1.6 channel (KV1.6): no significant effects | Effect on KV2.1 channel (KV2.1): no significant effects | Effect on KV4.2 channel (KV4.2): no significant effects | Effect on KV10.1 channel (KV10.1): no significant effects | Induction of apoptosis in Panc-1 spheroids (Panc-1 tumor spheroids): did and induce significant apoptosis | Induction of apoptosis in cancer cells [1]: induced mild apoptosis

COc1ccccc1C(=O)NCC1(c2ccsc2)CCCC1 [Compound 4]
Induction of apoptosis in Colo-357 spheroids (Colo-357 tumor spheroids): significant induction of apoptosis; also recorded: induced a significant amount of apoptosis | absorbance at 620 nm ([2]; 10 µM in PBS with 1 % final DMSO): 0 | absorbance at 620 nm ([2]; 100 µM in PBS with 1 % final DMSO): 0,035 | absorbance at 620 nm ([2]; 200 µM in PBS with 1 % final DMSO): 0,127 | absorbance at 620 nm ([2]; 500 µM in PBS with 1 % final DMSO): 0,189 | Effect on other KV1.x family channels or more distantly related channels [3]: did not affect

CC(C)/N=c1\cc2n(-c3ccc(Cl)cc3)c3ccccc3nc-2cc1Nc1ccc(Cl)cc1 [clofazimine (3), clofazimine]
cell death (Panc-1 cell line): less than 30% | EC50 (Colo-357): 1500 nM | Potency on KV1.3 relative to KV1.1, KV1.2, KV1.5 and KV3.1 [4]: tenfold higher potency | Induction of apoptosis in cancer cells [1]: induced mild apoptosis | EC50 apoptosis in PDAC cell lines [5]: micromolar range | Induction of apoptosis in PDAC cell lines [5]: induced significant apoptosis | Primary tumor weight [6]: significantly reduced

Source: PMC9179341, “Design of New Potent and Selective Thiophene-Based KV1.3 Inhibitors and Their Potential for Anticancer Activity” (Cancers, 2022)
